# PMC5218480 (PLoS ONE, 2017)
# System: MV-4-11 cells
# Assay: Gene expression microarray analysis (Affymetrix PrimeView) and GSEA
# Type: cell-based, human
# Parameters: RFU PODN (11730768_x_at) / Fold change /veh PODN (11730768_x_at) / RFU LINC00158 (11744669_a_at) / Fold change /veh LINC00158 (11744669_a_at) / RFU DUSP10 (11751237_a_at) / Fold change /veh DUSP10 (11751237_a_at) / RFU ID3 (11757404_x_at) / Fold change /veh ID3 (11757404_x_at) / RFU PLEKHG5 (11737974_s_at) / Fold change /veh PLEKHG5 (11737974_s_at) / RFU LRRC4B (11730491_at) / Fold change /veh LRRC4B (11730491_at) / RFU GIMAP4 (11747438_a_at) / Fold change /veh GIMAP4 (11747438_a_at) / RFU KRT8 (11758183_x_at) / Fold change /veh KRT8 (11758183_x_at) / RFU CNN1 (11734310_a_at) / Fold change /veh CNN1 (11734310_a_at) / RFU VPS37D (11726825_at) / Fold change /veh VPS37D (11726825_at) / RFU C10orf10 (11716522_x_at) / Fold change /veh C10orf10 (11716522_x_at) / RFU KIR2DL2 /// KIR2DL4 /// KIR2DL5A /// KIR2DL5B /// KIR2DS1 /// KIR2DS2 /// KIR2DS3 /// KIR2DS4 /// KIR3DL3 /// KIR3DL3 /// KIR3DS1 (11738374_at) / Fold change /veh KIR2DL2 /// KIR2DL4 /// KIR2DL5A /// KIR2DL5B /// KIR2DS1 /// KIR2DS2 /// KIR2DS3 /// KIR2DS4 /// KIR3DL3 /// KIR3DL3 /// KIR3DS1 (11738374_at) / RFU C1QL1 (11718748_at) / Fold change /veh C1QL1 (11718748_at) / RFU TMPRSS4 (11747572_a_at) / Fold change /veh TMPRSS4 (11747572_a_at) / RFU HAMP (11756126_x_at) / Fold change /veh HAMP (11756126_x_at) / RFU RNFT2 (11725882_a_at) / Fold change /veh RNFT2 (11725882_a_at) / RFU NR4A2 (11747474_a_at) / Fold change /veh NR4A2 (11747474_a_at) / RFU ABCC12 (11746883_a_at) / Fold change /veh ABCC12 (11746883_a_at) / RFU TMEM136 (11760407_x_at) / Fold change /veh TMEM136 (11760407_x_at) / RFU CLDN22 /// WWC2 (11732394_at) / Fold change /veh CLDN22 /// WWC2 (11732394_at) / RFU HLA-DPB1 (11760878_x_at) / Fold change /veh HLA-DPB1 (11760878_x_at) / RFU SPINT1 (11716480_a_at) / Fold change /veh SPINT1 (11716480_a_at) / RFU GAP43 (11754022_s_at) / Fold change /veh GAP43 (11754022_s_at) / RFU A4GNT (11735810_at) / Fold change /veh A4GNT (11735810_at) / RFU PRB3 (11715151_x_at) / Fold change /veh PRB3 (11715151_x_at) / RFU TUBB4B (11761932_at) / Fold change /veh TUBB4B (11761932_at) / RFU CAPN14 (11732068_a_at) / Fold change /veh CAPN14 (11732068_a_at) / RFU TMCC2 (11721928_a_at) / Fold change /veh TMCC2 (11721928_a_at) / RFU IRGQ (11745062_a_at) / Fold change /veh IRGQ (11745062_a_at) / RFU FAM174B (11720279_a_at) / Fold change /veh FAM174B (11720279_a_at) / RFU TMPRSS4 (11748680_a_at) / Fold change /veh TMPRSS4 (11748680_a_at) / RFU FAM212B (11763350_a_at) / Fold change /veh FAM212B (11763350_a_at) / RFU PLEKHG5 (11743358_a_at) / Fold change /veh PLEKHG5 (11743358_a_at) / RFU ZSCAN30 (11745921_a_at) / Fold change /veh ZSCAN30 (11745921_a_at) / RFU CMKLR1 (11741424_a_at) / Fold change /veh CMKLR1 (11741424_a_at) / RFU LOC101060620 /// MAPK8IP1 (11723275_at) / Fold change /veh LOC101060620 /// MAPK8IP1 (11723275_at) / RFU SPTSSB (11747773_x_at) / Fold change /veh SPTSSB (11747773_x_at) / RFU PRSS12 (11739890_at) / Fold change /veh PRSS12 (11739890_at) / RFU BIN1 (11741810_x_at) / Fold change /veh BIN1 (11741810_x_at) / RFU WNT11 (11732464_a_at) / Fold change /veh WNT11 (11732464_a_at) / RFU C10orf10 (11716521_a_at) / Fold change /veh C10orf10 (11716521_a_at) / RFU C5orf56 (11738089_at) / Fold change /veh C5orf56 (11738089_at) / RFU CYB561 (11721691_x_at) / Fold change /veh CYB561 (11721691_x_at) / RFU ANKRD19P (11752326_a_at) / Fold change /veh ANKRD19P (11752326_a_at) / RFU OR2T12 /// OR2T33 /// OR2T8 (11738714_s_at) / Fold change /veh OR2T12 /// OR2T33 /// OR2T8 (11738714_s_at) / RFU VCAN (11748164_a_at) / Fold change /veh VCAN (11748164_a_at) / RFU JSRP1 (11732532_at) / Fold change /veh JSRP1 (11732532_at) / RFU KRTAP10-11 (11738290_x_at) / Fold change /veh KRTAP10-11 (11738290_x_at) / RFU MYO3A (11730013_a_at) / Fold change /veh MYO3A (11730013_a_at) / RFU EBF3 (11725865_a_at) / Fold change /veh EBF3 (11725865_a_at) / RFU CAMK2N1 (11719241_x_at) / Fold change /veh CAMK2N1 (11719241_x_at) / RFU C5orf56 (11738088_a_at) / Fold change /veh C5orf56 (11738088_a_at) / RFU OLFML3 (11715873_a_at) / Fold change /veh OLFML3 (11715873_a_at) / RFU LOC100653217 /// NTM (11731650_a_at) / Fold change /veh LOC100653217 /// NTM (11731650_a_at) / RFU MAPK11 (11762145_a_at) / Fold change /veh MAPK11 (11762145_a_at) / RFU FIZ1 (11724087_x_at) / Fold change /veh FIZ1 (11724087_x_at) / RFU OASL (11726364_x_at) / Fold change /veh OASL (11726364_x_at) / RFU SOX15 (11748057_x_at) / Fold change /veh SOX15 (11748057_x_at) / RFU CD79A (11719716_a_at) / Fold change /veh CD79A (11719716_a_at) / RFU HIST1H1D (11736915_at) / Fold change /veh HIST1H1D (11736915_at) / RFU CASKIN2 (11723855_a_at) / Fold change /veh CASKIN2 (11723855_a_at) / RFU LOC730098 (11760151_x_at) / Fold change /veh LOC730098 (11760151_x_at) / RFU OR4N2 (11742367_at) / Fold change /veh OR4N2 (11742367_at) / RFU PRRT2 (11749266_a_at) / Fold change /veh PRRT2 (11749266_a_at) / RFU SNX32 (11753110_a_at) / Fold change /veh SNX32 (11753110_a_at) / RFU CDHR5 (11726645_a_at) / Fold change /veh CDHR5 (11726645_a_at) / RFU RCAN1 (11760418_a_at) / Fold change /veh RCAN1 (11760418_a_at) / RFU FAM167A (11723789_a_at) / Fold change /veh FAM167A (11723789_a_at) / RFU FAM26E (11764081_at) / Fold change /veh FAM26E (11764081_at) / RFU ISYNA1 (11749810_s_at) / Fold change /veh ISYNA1 (11749810_s_at) / RFU ACY1 (11761880_at) / Fold change /veh ACY1 (11761880_at) / RFU 11764098_at / Fold change /veh 11764098_at / RFU SAMD14 (11745864_x_at) / Fold change /veh SAMD14 (11745864_x_at) / RFU NPB (11741838_a_at) / Fold change /veh NPB (11741838_a_at) / RFU TMPRSS6 (11731388_a_at) / Fold change /veh TMPRSS6 (11731388_a_at) / RFU KRTAP10-2 (11738614_at) / Fold change /veh KRTAP10-2 (11738614_at) / RFU ARHGAP8 /// PRR5-ARHGAP8 (11727945_x_at) / Fold change /veh ARHGAP8 /// PRR5-ARHGAP8 (11727945_x_at) / RFU KRTAP5-7 /// NADSYN1 (11734609_at) / Fold change /veh KRTAP5-7 /// NADSYN1 (11734609_at) / RFU RASL12 (11751679_a_at) / Fold change /veh RASL12 (11751679_a_at) / RFU CDKN2B (11736163_a_at) / Fold change /veh CDKN2B (11736163_a_at) / RFU PRF1 (11729649_at) / Fold change /veh PRF1 (11729649_at) / RFU, ZNF638 /// ZNF638-IT1 / Fold change vs veh, ZNF638 /// ZNF638-IT1 / RFU, PANK3 / Fold change vs veh, PANK3 / RFU, SH3YL1 / Fold change vs veh, SH3YL1 / RFU, ZEB2 / Fold change vs veh, ZEB2 / RFU, NRIP1 / Fold change vs veh, NRIP1 / RFU, PTTG1IP / Fold change vs veh, PTTG1IP / RFU, CAPN2 / Fold change vs veh, CAPN2 / RFU, MED14 / Fold change vs veh, MED14 / RFU, SNORA58 / Fold change vs veh, SNORA58 / RFU, C1orf63 / Fold change vs veh, C1orf63 / RFU, LRRFIP1 / Fold change vs veh, LRRFIP1 / RFU, NDUFAF7 / Fold change vs veh, NDUFAF7 / RFU, SLC12A2 / Fold change vs veh, SLC12A2 / RFU, IBTK / Fold change vs veh, IBTK / RFU, ESF1 / Fold change vs veh, ESF1 / Fold change vs veh, TMEM50B / RFU, TAOK1 / Fold change vs veh, TAOK1 / RFU, ACBD3 / Fold change vs veh, ACBD3 / RFU, TMA16 / Fold change vs veh, TMA16 / RFU, RWDD3 / Fold change vs veh, RWDD3 / RFU, BCAT1 / Fold change vs veh, BCAT1 / RFU, EDEM3 / Fold change vs veh, EDEM3 / RFU, TMEM33 / Fold change vs veh, TMEM33 / RFU, WDR75 / Fold change vs veh, WDR75 / RFU, AHCTF1 / Fold change vs veh, AHCTF1 / RFU, TFRC / Fold change vs veh, TFRC / RFU, ZDHHC17 / Fold change vs veh, ZDHHC17 / RFU, NOM1 / Fold change vs veh, NOM1 / RFU, ARL8B / Fold change vs veh, ARL8B / RFU, ZBTB11 / Fold change vs veh, ZBTB11 / RFU, TAMM41 / Fold change vs veh, TAMM41 / RFU, KIAA1704 /// LOC100996395 / Fold change vs veh, KIAA1704 /// LOC100996395 / RFU, ING1 / Fold change vs veh, ING1 / RFU, TRMT61B / Fold change vs veh, TRMT61B / RFU, FUBP3 / Fold change vs veh, FUBP3 / RFU, TP53 / Fold change vs veh, TP53 / RFU, TNKS2 / Fold change vs veh, TNKS2 / RFU, ZFP14 / Fold change vs veh, ZFP14 / RFU, ACTR2 / Fold change vs veh, ACTR2 / RFU, PPP3R1 / Fold change vs veh, PPP3R1 / RFU, PIK3R1 / Fold change vs veh, PIK3R1 / RFU, HNRNPA1 / Fold change vs veh, HNRNPA1 / RFU, RNF170 / Fold change vs veh, RNF170 / RFU, ZNF28 / Fold change vs veh, ZNF28 / RFU, RNGTT / Fold change vs veh, RNGTT / RFU, OGT / Fold change vs veh, OGT / RFU, BRD1 / Fold change vs veh, BRD1 / RFU, MARS / Fold change vs veh, MARS / RFU, ZNF655 / Fold change vs veh, ZNF655 / RFU, FAHD1 / Fold change vs veh, FAHD1 / RFU, BDP1 / Fold change vs veh, BDP1 / RFU, LRRCC1 / Fold change vs veh, LRRCC1 / RFU, ARID1A / Fold change vs veh, ARID1A / RFU, ZNF146 / Fold change vs veh, ZNF146 / RFU, ZNF330 / Fold change vs veh, ZNF330 / RFU, GPN3 / Fold change vs veh, GPN3 / RFU, C9orf123 / Fold change vs veh, C9orf123 / RFU, N4BP2L2 / Fold change vs veh, N4BP2L2 / RFU, ARFIP1 / Fold change vs veh, ARFIP1 / RFU, FAM179B / Fold change vs veh, FAM179B / RFU, BCL10 / Fold change vs veh, BCL10 / RFU, UHRF1BP1L / Fold change vs veh, UHRF1BP1L / RFU, BET1 / Fold change vs veh, BET1 / RFU, CNOT2 / Fold change vs veh, CNOT2 / RFU, ZNF268 / Fold change vs veh, ZNF268 / Fold change vs veh, ZNF507 / RFU, DGCR2 / Fold change vs veh, DGCR2 / RFU, WDSUB1 / Fold change vs veh, WDSUB1 / Fold change vs veh, HSP90B1 /// MIR3652 / RFU, ADSS / Fold change vs veh, ADSS / RFU, GK / Fold change vs veh, GK / RFU, ZNF148 / Fold change vs veh, ZNF148 / RFU, TAF9 / Fold change vs veh, TAF9 / RFU, SLC1A5 / Fold change vs veh, SLC1A5 / RFU, SLMO2 / Fold change vs veh, SLMO2 / RFU, ABCC4 / Fold change vs veh, ABCC4 / RFU, LOC101060439 /// RAP1B / Fold change vs veh, LOC101060439 /// RAP1B / RFU, RFX7 / Fold change vs veh, RFX7 / RFU, GTPBP10 / Fold change vs veh, GTPBP10 / RFU, CNEP1R1 / Fold change vs veh, CNEP1R1 / RFU, BIVM-ERCC5 /// ERCC5 / Fold change vs veh, BIVM-ERCC5 /// ERCC5 / RFU, ILF3 / Fold change vs veh, ILF3 / RFU 11762660_at / Fold change /veh 11762660_at / RFU VCAN (11757783_s_at) / Fold change /veh VCAN (11757783_s_at) / RFU DDX43 (11728927_at) / Fold change /veh DDX43 (11728927_at) / RFU KRT8 (11758188_x_at) / Fold change /veh KRT8 (11758188_x_at) / RFU NKD1 (11759106_at) / Fold change /veh NKD1 (11759106_at) / RFU SRD5A1 (11742802_a_at) / Fold change /veh SRD5A1 (11742802_a_at) / RFU TPSAB1 /// TPSB2 (11721975_s_at) / Fold change /veh TPSAB1 /// TPSB2 (11721975_s_at) / RFU GSTM3 (11746129_a_at) / Fold change /veh GSTM3 (11746129_a_at) / RFU IL23R (11737362_x_at) / Fold change /veh IL23R (11737362_x_at) / RFU TMEM51 (11727254_a_at) / Fold change /veh TMEM51 (11727254_a_at) / RFU PIWIL2 (11732686_x_at) / Fold change /veh PIWIL2 (11732686_x_at) / RFU ORM1 (11744905_x_at) / Fold change /veh ORM1 (11744905_x_at) / RFU CCDC152 (11743942_at) / Fold change /veh CCDC152 (11743942_at) / RFU ECM1 (11717891_a_at) / Fold change /veh ECM1 (11717891_a_at) / RFU IL23R (11748794_a_at) / Fold change /veh IL23R (11748794_a_at) / RFU TNFAIP8L3 (11732012_x_at) / Fold change /veh TNFAIP8L3 (11732012_x_at) / RFU MBOAT4 (11741988_at) / Fold change /veh MBOAT4 (11741988_at) / RFU 11764193_at / Fold change /veh 11764193_at / RFU TMEM53 (11763286_at) / Fold change /veh TMEM53 (11763286_at) / RFU MAGEB2 (11727129_at) / Fold change /veh MAGEB2 (11727129_at) / RFU TMEM200A (11744735_a_at) / Fold change /veh TMEM200A (11744735_a_at) / RFU CCDC152 (11751479_a_at) / Fold change /veh CCDC152 (11751479_a_at) / RFU FAM211A (11726209_a_at) / Fold change /veh FAM211A (11726209_a_at) / RFU RGS16 (11746705_a_at) / Fold change /veh RGS16 (11746705_a_at) / RFU VCAN (11755009_s_at) / Fold change /veh VCAN (11755009_s_at) / RFU RHOB (11743442_s_at) / Fold change /veh RHOB (11743442_s_at) / RFU RGS16 (11720943_a_at) / Fold change /veh RGS16 (11720943_a_at) / RFU RGS16 (11720944_at) / Fold change /veh RGS16 (11720944_at) / RFU, VPS4B / Fold change vs veh, VPS4B / RFU, CREB1 / Fold change vs veh, CREB1 / RFU, DNAJC13 / Fold change vs veh, DNAJC13 / RFU, GNAQ / Fold change vs veh, GNAQ / RFU, CDK5R1 / Fold change vs veh, CDK5R1 / RFU, ZRANB3 / Fold change vs veh, ZRANB3 / RFU, CUL4A / Fold change vs veh, CUL4A / RFU, CCNY / Fold change vs veh, CCNY / RFU, UFL1 / Fold change vs veh, UFL1 / RFU, COG3 / Fold change vs veh, COG3 / RFU, DIAPH2 / Fold change vs veh, DIAPH2 / RFU, SKA2 / Fold change vs veh, SKA2 / RFU, AFF3 / Fold change vs veh, AFF3 / RFU, LMF1 / Fold change vs veh, LMF1 / RFU, IPO11 / Fold change vs veh, IPO11 / RFU, DFFB / Fold change vs veh, DFFB / RFU, FOXP1 / Fold change vs veh, FOXP1 / RFU, CARD8 / Fold change vs veh, CARD8 / RFU, STRN3 / Fold change vs veh, STRN3 / RFU, ADK / Fold change vs veh, ADK / RFU, RASSF2 / Fold change vs veh, RASSF2 / RFU, WIPF1 / Fold change vs veh, WIPF1 / RFU, LARP1B / Fold change vs veh, LARP1B / RFU, RASA1 / Fold change vs veh, RASA1 / RFU, RB1 / Fold change vs veh, RB1 / RFU, PPFIA1 / Fold change vs veh, PPFIA1 / RFU, MAT2A / Fold change vs veh, MAT2A / RFU, CCT5 / Fold change vs veh, CCT5 / RFU, WDR92 / Fold change vs veh, WDR92 / RFU, CUX1 / Fold change vs veh, CUX1 / RFU, TTC7A / Fold change vs veh, TTC7A / RFU, TMEM135 / Fold change vs veh, TMEM135 / RFU, DEPTOR / Fold change vs veh, DEPTOR / RFU, CPM / Fold change vs veh, CPM / RFU, DNAJB6 / Fold change vs veh, DNAJB6 / RFU, CACNA2D3 / Fold change vs veh, CACNA2D3 / RFU, DTX4 / Fold change vs veh, DTX4 / RFU, TFCP2 / Fold change vs veh, TFCP2 / RFU, GMCL1 /// GMCL1P1 / Fold change vs veh, GMCL1 /// GMCL1P1 / RFU, AEBP2 / Fold change vs veh, AEBP2 / RFU, SNHG1 /// SNORD22 /// SNORD25 /// SNORD26 /// SNORD27 /// SNORD28 /// SNORD29 /// SNORD31 / Fold change vs veh, SNHG1 /// SNORD22 /// SNORD25 /// SNORD26 /// SNORD27 /// SNORD28 /// SNORD29 /// SNORD31 / Fold change (Aza/veh), C12orf56 (ProbeSet 11735607_a_at) / Fold change (ACY-1035/veh), C12orf56 (ProbeSet 11735607_a_at) / Fold change (Aza/veh), FGFR1OP (ProbeSet 11751329_s_at) / Fold change (ACY-1035/veh), FGFR1OP (ProbeSet 11751329_s_at) / Fold change (Aza/veh), VPS36 (ProbeSet 11739960_a_at) / Fold change (ACY-1035/veh), VPS36 (ProbeSet 11739960_a_at) / RFU SYPL1 (11715823_x_at) / Fold change /veh SYPL1 (11715823_x_at) / RFU IGFBP7 (11715501_s_at) / Fold change /veh IGFBP7 (11715501_s_at) / RFU REEP3 (11722064_at) / Fold change /veh REEP3 (11722064_at) / RFU IGLL1 (11728026_x_at) / Fold change /veh IGLL1 (11728026_x_at): dose or concentration left out as unconfirmed
# Details: MV-4-11 cells, 48 hours
structure (smiles),measurement,value
Nc1ccc(-c2cccs2)cc1NC(=O)c1ccc2c(c1)cc(C1CC1)n2CCN1CCOCC1 [ACY-1035],RFU OR4N2 (11742367_at),72.30 RFU
